What was measured:
Assay in all cases: KINOMEscan competition binding
[1] = molecular target: STK36 (human) (UniProt Q9NRP7)
[2] = molecular target: PAK3 (human) (UniProt O75914)
[3] = molecular target: FRK (human) (UniProt P42685)
[4] = molecular target: CAMK1G (human) (UniProt Q96NX5)
[5] = molecular target: CSNK1G2 (human) (UniProt P78368)
[6] = molecular target: RIPK2 (human) (UniProt O43353)
[7] = molecular target: CLK2 (human) (UniProt P49760)
[8] = molecular target: RPS6KA2 KD1 (human) (UniProt Q15349)
[9] = molecular target: CAMK2B (human) (UniProt Q13554)
Chain of CAMK2B (human) (Q13554 whole entry, looked up): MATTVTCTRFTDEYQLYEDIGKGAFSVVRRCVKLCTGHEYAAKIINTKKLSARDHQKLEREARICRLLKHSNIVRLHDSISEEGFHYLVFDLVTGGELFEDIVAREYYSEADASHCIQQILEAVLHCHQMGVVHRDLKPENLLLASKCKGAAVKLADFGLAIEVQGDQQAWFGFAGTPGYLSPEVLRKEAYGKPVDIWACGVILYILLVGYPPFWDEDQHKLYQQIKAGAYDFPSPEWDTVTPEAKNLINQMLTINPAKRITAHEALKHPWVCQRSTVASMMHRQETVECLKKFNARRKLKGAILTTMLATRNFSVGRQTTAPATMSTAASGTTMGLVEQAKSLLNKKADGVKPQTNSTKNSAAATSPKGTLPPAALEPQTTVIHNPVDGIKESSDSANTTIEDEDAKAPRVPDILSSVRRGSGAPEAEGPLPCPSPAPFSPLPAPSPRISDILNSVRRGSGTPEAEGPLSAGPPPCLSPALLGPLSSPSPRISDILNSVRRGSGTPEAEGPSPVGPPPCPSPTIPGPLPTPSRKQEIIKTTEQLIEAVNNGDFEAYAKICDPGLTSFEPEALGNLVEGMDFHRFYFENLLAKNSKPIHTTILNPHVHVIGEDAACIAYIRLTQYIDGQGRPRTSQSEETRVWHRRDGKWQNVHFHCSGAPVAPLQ

[10] = molecular target: BMP2K (human) (UniProt Q9NSY1)
[11] = molecular target: MAP4K5 (human) (UniProt Q9Y4K4)
Chain of MAP4K5 (human) (Q9Y4K4 whole entry, looked up): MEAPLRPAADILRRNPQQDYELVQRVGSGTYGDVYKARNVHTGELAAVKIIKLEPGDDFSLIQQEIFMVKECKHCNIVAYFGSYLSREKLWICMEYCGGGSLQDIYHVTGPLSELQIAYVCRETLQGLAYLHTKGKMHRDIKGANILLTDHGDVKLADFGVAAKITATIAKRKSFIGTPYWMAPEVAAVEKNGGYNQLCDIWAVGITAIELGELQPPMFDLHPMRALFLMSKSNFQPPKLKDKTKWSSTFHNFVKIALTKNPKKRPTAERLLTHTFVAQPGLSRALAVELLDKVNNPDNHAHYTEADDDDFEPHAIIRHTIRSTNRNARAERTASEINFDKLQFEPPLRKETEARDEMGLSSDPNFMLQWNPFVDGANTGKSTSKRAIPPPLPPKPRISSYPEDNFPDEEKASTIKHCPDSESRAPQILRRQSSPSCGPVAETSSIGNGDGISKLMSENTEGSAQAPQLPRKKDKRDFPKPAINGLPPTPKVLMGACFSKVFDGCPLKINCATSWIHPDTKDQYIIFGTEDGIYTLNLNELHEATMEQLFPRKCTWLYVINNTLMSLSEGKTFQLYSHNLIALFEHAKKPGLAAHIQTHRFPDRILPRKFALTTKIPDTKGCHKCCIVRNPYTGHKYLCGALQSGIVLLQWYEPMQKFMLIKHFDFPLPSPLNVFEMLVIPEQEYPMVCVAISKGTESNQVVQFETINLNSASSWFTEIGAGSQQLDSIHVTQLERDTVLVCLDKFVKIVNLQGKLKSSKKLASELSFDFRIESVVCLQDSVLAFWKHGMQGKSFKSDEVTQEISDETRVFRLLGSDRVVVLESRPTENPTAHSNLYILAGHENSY

[12] = molecular target: EPHA3 (human) (UniProt P29320)
[13] = molecular target: PHKG2 (human) (UniProt P15735)
[14] = molecular target: CDK5 (human) (UniProt Q00535)
[15] = molecular target: DAPK2 (human) (UniProt Q9UIK4)
Chain of DAPK2 (human) (Q9UIK4 whole entry, looked up): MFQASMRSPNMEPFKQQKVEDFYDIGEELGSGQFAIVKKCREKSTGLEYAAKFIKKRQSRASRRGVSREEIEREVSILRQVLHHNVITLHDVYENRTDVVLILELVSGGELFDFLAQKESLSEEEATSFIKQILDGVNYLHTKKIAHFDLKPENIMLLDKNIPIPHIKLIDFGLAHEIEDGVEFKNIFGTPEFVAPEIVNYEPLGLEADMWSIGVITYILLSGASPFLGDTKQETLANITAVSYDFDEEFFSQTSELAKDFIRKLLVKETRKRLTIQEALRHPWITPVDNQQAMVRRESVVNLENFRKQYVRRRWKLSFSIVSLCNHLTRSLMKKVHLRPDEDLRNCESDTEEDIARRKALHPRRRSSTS

[16] = molecular target: MKNK2 (human) (UniProt Q9HBH9)
[17] = molecular target: STK3 (mouse); details: accession and sequence are those of the human protein
[18] = molecular target: DAPK3 (human) (UniProt O43293)
Chain of DAPK3 (human) (O43293 whole entry, looked up): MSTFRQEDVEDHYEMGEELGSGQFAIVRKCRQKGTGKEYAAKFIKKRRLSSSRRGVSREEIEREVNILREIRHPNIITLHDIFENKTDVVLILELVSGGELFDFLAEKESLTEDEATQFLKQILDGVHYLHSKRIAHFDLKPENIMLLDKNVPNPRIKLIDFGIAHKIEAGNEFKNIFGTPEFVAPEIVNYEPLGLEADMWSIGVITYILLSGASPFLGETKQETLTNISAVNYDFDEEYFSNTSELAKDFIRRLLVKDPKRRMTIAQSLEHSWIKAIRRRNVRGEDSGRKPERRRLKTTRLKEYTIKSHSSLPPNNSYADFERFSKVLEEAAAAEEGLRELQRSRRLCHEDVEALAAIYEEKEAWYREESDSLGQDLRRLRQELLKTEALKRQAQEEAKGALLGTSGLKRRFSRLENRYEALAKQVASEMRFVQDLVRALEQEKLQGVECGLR

[19] = molecular target: AURKA (human) (UniProt O14965)
[20] = molecular target: SLK (human) (UniProt Q9H2G2)
Chain of SLK (human) (Q9H2G2 whole entry, looked up): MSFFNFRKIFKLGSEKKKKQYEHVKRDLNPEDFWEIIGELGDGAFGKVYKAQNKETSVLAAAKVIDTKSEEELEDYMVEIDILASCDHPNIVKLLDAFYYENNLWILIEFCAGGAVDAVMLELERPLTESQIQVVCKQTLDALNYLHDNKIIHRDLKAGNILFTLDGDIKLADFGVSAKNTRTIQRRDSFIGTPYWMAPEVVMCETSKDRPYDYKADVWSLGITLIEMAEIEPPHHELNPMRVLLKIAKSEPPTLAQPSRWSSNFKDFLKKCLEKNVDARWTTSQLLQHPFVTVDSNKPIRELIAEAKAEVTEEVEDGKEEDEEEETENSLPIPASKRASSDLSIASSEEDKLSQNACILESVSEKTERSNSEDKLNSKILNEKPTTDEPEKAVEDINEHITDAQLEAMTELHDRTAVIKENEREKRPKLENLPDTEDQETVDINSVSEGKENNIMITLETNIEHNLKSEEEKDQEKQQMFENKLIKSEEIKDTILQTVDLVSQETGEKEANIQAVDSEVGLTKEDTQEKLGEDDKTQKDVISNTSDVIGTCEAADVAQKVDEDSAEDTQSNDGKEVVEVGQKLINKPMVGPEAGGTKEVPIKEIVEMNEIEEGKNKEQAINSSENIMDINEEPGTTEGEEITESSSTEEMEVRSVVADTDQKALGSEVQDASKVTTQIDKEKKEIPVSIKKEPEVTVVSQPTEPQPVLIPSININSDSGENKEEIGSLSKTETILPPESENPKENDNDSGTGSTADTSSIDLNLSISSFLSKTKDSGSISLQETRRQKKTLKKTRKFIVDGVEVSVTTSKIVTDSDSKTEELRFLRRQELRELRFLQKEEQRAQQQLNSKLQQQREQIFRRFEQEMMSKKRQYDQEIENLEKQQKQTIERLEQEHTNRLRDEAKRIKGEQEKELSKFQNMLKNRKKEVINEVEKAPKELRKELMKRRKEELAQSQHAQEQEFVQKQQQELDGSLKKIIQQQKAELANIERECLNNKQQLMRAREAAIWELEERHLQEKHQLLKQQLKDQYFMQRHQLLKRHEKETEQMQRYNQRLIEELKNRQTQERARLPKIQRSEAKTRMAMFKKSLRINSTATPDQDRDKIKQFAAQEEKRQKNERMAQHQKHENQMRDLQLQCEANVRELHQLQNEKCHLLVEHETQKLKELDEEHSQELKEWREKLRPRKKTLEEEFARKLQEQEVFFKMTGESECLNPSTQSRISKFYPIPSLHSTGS

[21] = molecular target: RPS6KA5 KD1 (human) (UniProt O75582)
[22] = molecular target: PIM2 (human) (UniProt Q9P1W9)
[23] = molecular target: CAMKK2 (human) (UniProt Q96RR4)
[24] = molecular target: STK38L (human) (UniProt Q9Y2H1)

Measured: Kd

Chain of PAK3 (human) (O75914 whole entry, looked up): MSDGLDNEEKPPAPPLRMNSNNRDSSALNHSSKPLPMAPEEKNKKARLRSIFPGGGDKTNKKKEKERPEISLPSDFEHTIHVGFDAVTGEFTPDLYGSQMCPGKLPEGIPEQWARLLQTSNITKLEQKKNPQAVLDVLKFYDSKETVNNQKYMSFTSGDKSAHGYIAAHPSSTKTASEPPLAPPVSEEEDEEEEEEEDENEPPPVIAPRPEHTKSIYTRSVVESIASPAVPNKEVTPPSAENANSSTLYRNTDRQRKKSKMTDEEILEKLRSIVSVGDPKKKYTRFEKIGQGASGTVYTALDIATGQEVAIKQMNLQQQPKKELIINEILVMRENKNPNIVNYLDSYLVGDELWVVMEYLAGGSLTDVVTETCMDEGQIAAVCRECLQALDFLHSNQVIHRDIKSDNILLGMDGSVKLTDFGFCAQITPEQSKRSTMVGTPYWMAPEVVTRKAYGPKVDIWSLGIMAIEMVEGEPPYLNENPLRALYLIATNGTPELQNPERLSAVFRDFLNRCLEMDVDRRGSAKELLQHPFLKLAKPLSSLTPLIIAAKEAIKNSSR
Chain of CLK2 (human) (P49760 whole entry, looked up): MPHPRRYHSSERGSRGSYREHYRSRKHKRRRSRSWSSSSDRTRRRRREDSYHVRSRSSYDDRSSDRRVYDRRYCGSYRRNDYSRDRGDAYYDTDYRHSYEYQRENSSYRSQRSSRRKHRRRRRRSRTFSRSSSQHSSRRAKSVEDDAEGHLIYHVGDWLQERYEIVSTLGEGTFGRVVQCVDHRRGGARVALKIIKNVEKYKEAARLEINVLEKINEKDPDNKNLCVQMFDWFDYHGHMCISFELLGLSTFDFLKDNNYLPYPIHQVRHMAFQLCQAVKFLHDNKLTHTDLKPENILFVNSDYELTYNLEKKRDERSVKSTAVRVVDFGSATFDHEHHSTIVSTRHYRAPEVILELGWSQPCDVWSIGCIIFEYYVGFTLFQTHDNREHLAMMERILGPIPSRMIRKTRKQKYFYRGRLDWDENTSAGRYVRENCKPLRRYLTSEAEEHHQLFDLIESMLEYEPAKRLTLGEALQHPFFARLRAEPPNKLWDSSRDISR
Chain of CSNK1G2 (human) (P78368 whole entry, looked up): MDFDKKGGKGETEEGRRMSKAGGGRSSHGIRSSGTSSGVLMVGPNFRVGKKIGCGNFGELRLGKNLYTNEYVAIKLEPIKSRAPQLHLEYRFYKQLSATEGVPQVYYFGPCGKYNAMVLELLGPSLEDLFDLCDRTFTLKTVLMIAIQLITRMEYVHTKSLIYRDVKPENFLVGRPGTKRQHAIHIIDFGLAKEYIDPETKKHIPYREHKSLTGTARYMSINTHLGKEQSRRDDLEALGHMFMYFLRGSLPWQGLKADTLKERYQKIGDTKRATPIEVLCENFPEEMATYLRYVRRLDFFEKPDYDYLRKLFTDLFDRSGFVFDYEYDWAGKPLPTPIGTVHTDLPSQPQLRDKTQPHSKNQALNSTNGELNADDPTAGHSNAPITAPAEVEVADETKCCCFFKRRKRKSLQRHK

O=C1c2ccccc2-c2n[nH]c3cccc1c23
> 10 µM: [1] | [2] | [3] | [4] | [5] | [6]

Oc1ccc(-c2nc(-c3ccc(F)cc3)c(-c3ccncc3)[nH]2)cc1
not listed: [1] | [2] | [3] | [4] | [5] | [6]
> 10 µM: all other assays above

Reference: the kinase profiling compilation of Christmann-Franck et al. (2016)
